Patent US20070105865A1, “Substituted bicyclic quinazolin-4-ylamine derivatives” (Neurogen Corporation, priority 2003, published 2007)
Counter-ions that a name gives are not always drawn.

Target: T1, human capsaicin receptor (Homo sapiens, UniProt Q8NER1)
T1 construct: transfected with the pBK-CMV expression construct encoding the full length human capsaicin receptor using standard methods; expressed in transfected cells
Experiment: Calcium mobilization assay (Example 6)
Format: cell-based
Details: determined as described in Example 6; cells expressing human capsaicin receptor, capsaicin response
Experimental: Human embryonic kidney (HEK293) cells were transfected with the pBK-CMV expression construct encoding the full length human capsaicin receptor using standard methods. The transfected cells were selected for two weeks in media containing G418 (400 μg/ml) to obtain a pool of stably transfected cells. Independent clones were isolated from this pool by limiting dilution to obtain clonal stable cell lines for use in subsequent experiments.
This Example illustrates a representative calcium mobilization assay for use in monitoring the response of cells expressing capsaicin receptor to capsaicin and other vanilloid ligands of the capsaicin receptor, as well as for evaluating test compounds for agonist and antagonist activity.
Cells transfected with expression plasmids (as described in Example 4) and thereby expressing human capsaicin receptor are seeded and grown to 70-90% confluency in FALCON black-walled, clear-bottomed 96-well plates (#3904, BECTON-DICKINSON, Franklin Lakes, N.J.). The culture medium is emptied from the 96 well plates and FLUO-3 AM calcium sensitive dye (Molecular Probes, Eugene, Oreg.) is added to each well (dye solution: 1 mg FLUO-3 AM, 440 μL DMSO and 440 μl 20% pluronic acid in DMSO, diluted 1:250 in Krebs-Ringer HEPES (KRH) buffer (25 mM HEPES, 5 mM KCl, 0.96 mM NaH2PO4, 1 mM MgSO4, 2 mM CaCl2, 5 mM glucose, 1 mM probenecid, pH 7.4), 50 μl diluted solution per well). Plates are covered with aluminum foil and incubated at 37° C. for 1-2 hours in an environment containing 5% CO2. After the incubation, the dye is emptied from the plates, and the cells are washed once with KRH buffer, and resuspended in KRH buffer.
Agonist (e.g., olvanil, capsaicin or RTX)-induced calcium mobilization is monitored using either FLUOROSKAN ASCENT (Labsystems, Franklin, Mass.) or FLIPR (fluorometric imaging plate reader system, Molecular Devices, Sunnyvale, Calif.) instruments. Varying concentrations of the antagonists ruthenium red or capsazepine (RBI; Natick, Mass.) are added to cells concurrently with agonist (e.g., 25-50 nM capsaicin). For agonist-induced calcium responses, data obtained between 30 and 60 seconds after agonist application are used to generate the IC50 values. KALEIDAGRAPH software (Synergy Software, Reading, Pa.) is used to fit the data to the equation: y=a*(1/(1+(b/x)^c)) to determine the IC50 for the response. In this equation, y is the maximum fluorescence signal, x is the concentration of the agonist or antagonist, a is the Emax, b corresponds to the IC50 value and c is the Hill coefficient.
To measure the ability of a test compound to antagonize (inhibit) the response of cells expressing capsaicin receptors to capsaicin or other vanilloid agonist, the IC50 of capsaicin is first determined. An additional 20 μl of KRH buffer and 1 μl DMSO is added to each well of cells, prepared as described above. 100 μl capsaicin in KRH buffer is automatically transferred by the FLIPR instrument to each well. An 8-point concentration response curve, with final capsaicin concentrations of 1 nM to 3 μM, is used to determine capsaicin IC50.
Test compounds are dissolved in DMSO, diluted in 20 μl KRH buffer so that the final concentration of test compounds in the assay well is between 1 μM and 5 μM, and added to cells prepared as described above. The 96 well plates containing prepared cells and test compounds are incubated in the dark, at room temperature for 0.5 to 6 hours. It is important that the incubation not continue beyond 6 hours. Just prior to determining the fluorescence response, 100 μl capsaicin in KRH buffer at twice the IC50 concentration determined from the concentration response curve is automatically added by the FLIPR instrument to each well of the 96 well plate for a final sample volume of 200 μl and a final capsaicin concentration equal to the IC50. The final concentration of test compounds in the assay wells is between 1 μM and 5 μM. […]

T1 sequence (Q8NER1 whole entry): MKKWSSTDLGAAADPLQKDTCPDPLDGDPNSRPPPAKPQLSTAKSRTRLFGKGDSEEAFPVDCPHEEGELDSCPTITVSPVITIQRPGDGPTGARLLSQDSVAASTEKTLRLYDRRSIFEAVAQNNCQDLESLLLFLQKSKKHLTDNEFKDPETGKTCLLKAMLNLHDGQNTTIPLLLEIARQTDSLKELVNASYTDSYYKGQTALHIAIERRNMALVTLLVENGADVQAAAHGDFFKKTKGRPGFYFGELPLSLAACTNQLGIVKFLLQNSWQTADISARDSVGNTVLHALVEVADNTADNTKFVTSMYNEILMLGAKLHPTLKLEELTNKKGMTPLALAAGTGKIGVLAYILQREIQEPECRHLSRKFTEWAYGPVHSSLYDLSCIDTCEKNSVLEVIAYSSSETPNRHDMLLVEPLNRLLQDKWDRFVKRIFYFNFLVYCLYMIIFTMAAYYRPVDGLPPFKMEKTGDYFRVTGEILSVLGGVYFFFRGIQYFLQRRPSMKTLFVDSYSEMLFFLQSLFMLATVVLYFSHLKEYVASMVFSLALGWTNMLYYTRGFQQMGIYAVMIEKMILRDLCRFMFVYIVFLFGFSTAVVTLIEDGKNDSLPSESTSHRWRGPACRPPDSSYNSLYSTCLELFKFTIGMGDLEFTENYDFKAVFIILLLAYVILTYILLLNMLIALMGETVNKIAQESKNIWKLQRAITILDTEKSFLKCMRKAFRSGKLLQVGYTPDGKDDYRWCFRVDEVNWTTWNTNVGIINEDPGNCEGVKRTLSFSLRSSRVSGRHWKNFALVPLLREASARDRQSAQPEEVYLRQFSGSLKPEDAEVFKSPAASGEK

Structure (SMILES)	IC50
COCc1nc(Nc2ccc3c(c2)N(C)CCC3)c2ccc(-c3ncccc3Cl)nc2n1 [Compound 1, [7-(3-Chloro-pyridin-2-yl)-2-methoxymethyl-pyrido[2,3-d]pyrimidin-4-yl]-(1-methyl-1,2,3,4-tetrahydro-quinolin-7-yl)-amine]	< 1000 nM
CC(C)COCc1nc(Nc2ccc3c(c2)NCCC3(C)C)c2ccc(-c3ncccc3C(F)(F)F)nc2n1 [Compound 4, (4,4-Dimethyl-1,2,3,4-tetrahydro-quinolin-7-yl)-[2-isobutoxymethyl-7-(3-trifluoromethyl-pyridin-2-yl)pyrido[2,3-d]pyrimidin-4-yl]-amine hydrochloride]	< 1000 nM
CN1Cc2cc(Nc3ncnc4cc(-c5ncccc5Cl)cnc34)ccc2C(C)(C)C1 [Compound 9, [7-(3-Chloro-pyridin-2-yl)-pyrido[3,2-d]pyrimidin-4-yl]-(2,4,4-trimethyl-1,2,3,4-tetrahydro-isoquinolin-7-yl)-amine hydrochloride]	< 1000 nM
CC(C)COCc1nc(Nc2ccc3c(c2)N(C)CC3(C)C)c2ccc(-c3ncccc3Cl)nc2n1 [Compound 8, [7-(3-Chloro-pyridin-2-yl)-2-isobutoxymethyl-pyrido[2,3-d]pyrimidin-4-yl]-(1,3,3-trimethyl-2,3-dihydro-1H-indol-6-yl)-amine]	< 1000 nM
CCOCc1nc(Nc2ccc3c(c2)N(C(C)=O)CC3(C)C)c2ccc(-c3ncccc3C)nc2n1 [Compound 7, 1-{6-[2-Ethoxymethyl-7-(3-methyl-pyridin-2-yl)-pyrido[2,3-d]pyrimidin-4-ylamino]-3,3-dimethyl-2,3-dihydro-indol-1-yl}-ethanone]	< 1000 nM
COCc1cc(Nc2ccc3c(c2)NCCC3(C)C)c2ccc(-c3ncccc3C(F)(F)F)nc2n1 [Compound 10]	< 1000 nM
CN1Cc2cc(Nc3ncnc4cc(-c5ncccc5C(F)(F)F)ccc34)ccc2C(C)(C)C1 [Compound 3, [7-(3-Trifluoromethyl-pyridin-2-yl)-quinazolin-4-yl]-(2,4,4-trimethyl-1,2,3,4-tetrahydro-isoquinolin-7-yl)-amine hydrochloride]	< 1000 nM
CCOCc1nc(Nc2ccc3c(c2)N(C)CCO3)c2ccc(-c3ncccc3Cl)nc2n1 [Compound 6]	< 1000 nM
COCc1nc(Nc2ccc3c(c2)NCCC3)c2ccc(-c3ncccc3C(F)(F)F)nc2n1 [Compound 5, [2-Methoxymethyl-7-(3-trifluorometyl-pyridin-2-yl)-pyrido[2,3-d]pyrimidin-4-yl]-(1,2,3,4-tetrahydro-quinolin-7-yl)-amine]	< 1000 nM
